Data: patent US20050164983A1, “Carboxyl-reduced derivatives of dermatan sulfate, preparation thereof, use thereof as a medicinal product and the pharmaceutical compositions containing them” (Aventis Pharma S.A., priority 2003, published 2005)

Key:
[1] = target: T1, human neutrophil elastase (Homo sapiens, UniProt P08246); experiment: Inhibitory activity on human neutrophil elastase; format: biochemical; settings: 15 min incubation
T1 construct: purchased Sigma E8140
T1 sequence (P08246 30-267): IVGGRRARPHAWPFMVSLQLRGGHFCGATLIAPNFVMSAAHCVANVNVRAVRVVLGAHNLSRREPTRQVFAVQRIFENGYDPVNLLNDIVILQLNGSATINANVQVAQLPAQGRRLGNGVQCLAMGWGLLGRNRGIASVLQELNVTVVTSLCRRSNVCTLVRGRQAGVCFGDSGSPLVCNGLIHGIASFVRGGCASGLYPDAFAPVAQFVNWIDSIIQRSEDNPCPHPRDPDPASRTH
Procedure: Effects of the Carboxyl-reduced Derivatives According to the Invention on Human Neutrophil Elastase
A commercially available enzyme (for example, human neutrophil elastase, Sigma No. E8140) is reconstituted in aliquots of 0.1 mg per vial with 0.276 ml of 50 mM sodium acetate buffer, pH 5.5, containing 200 mM NaCl (stock solution of the enzyme); 11 μl of this stock solution are diluted with 1.1 ml of the above HEPES buffer (enzyme assay solution).
The substrate solution is prepared by dissolving 118 mg of methoxy-succinyl-L-Ala-L-Ala-L-Pro-L-Val-p-nitro-anilide in 1 ml of DMSO (stock solution, for example Sigma No. M4765). In view of the application in the analysis, 9 μl of stock solution are then diluted in 1.19 ml of H2O.
Serial dilutions of the assay compounds are prepared in 100 mM of HEPES buffer containing 500 mM of NaCl. The analysis is carried out on colorless 96-well polystyrene microplates (for example, Corning Costar, No. 3695.
10 μl of enzyme assay solution are mixed with 10 μl of the respective solution of diluted compound and 10 μl of the substrate solution. After incubation for 15 min, the cleavage of the substrate is read as increase in absorbance at 405 nm.

[2] = target: T2, bovine factor Xa (Bos taurus, UniProt P00743); experiment: Inhibition of factor Xa (chromogenic substrate S-2765, with human antithrombin III); format: biochemical; settings: calibrated against Enoxaparin
T2 sequence (P01008 33-464 partner): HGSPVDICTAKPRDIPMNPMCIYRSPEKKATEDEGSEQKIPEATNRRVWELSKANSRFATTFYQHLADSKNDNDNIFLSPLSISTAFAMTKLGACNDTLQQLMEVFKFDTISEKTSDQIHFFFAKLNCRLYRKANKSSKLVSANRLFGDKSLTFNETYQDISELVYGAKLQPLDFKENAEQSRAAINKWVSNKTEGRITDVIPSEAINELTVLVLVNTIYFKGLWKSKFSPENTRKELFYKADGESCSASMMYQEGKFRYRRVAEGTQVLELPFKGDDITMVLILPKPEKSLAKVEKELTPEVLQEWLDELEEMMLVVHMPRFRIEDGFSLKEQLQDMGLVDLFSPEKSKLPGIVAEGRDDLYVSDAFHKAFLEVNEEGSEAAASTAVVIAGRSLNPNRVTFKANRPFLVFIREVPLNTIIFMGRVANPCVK
T2 sequence (P00743 234-492 limits assumed): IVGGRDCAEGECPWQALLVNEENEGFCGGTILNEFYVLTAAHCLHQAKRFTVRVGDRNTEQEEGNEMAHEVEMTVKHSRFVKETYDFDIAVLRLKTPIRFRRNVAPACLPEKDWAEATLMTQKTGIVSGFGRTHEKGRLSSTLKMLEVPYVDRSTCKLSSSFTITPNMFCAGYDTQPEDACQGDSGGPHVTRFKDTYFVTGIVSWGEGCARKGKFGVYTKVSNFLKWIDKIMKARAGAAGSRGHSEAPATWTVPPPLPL
Procedure: For the calibration, a standard sample of low molecular weight heparin (Enoxaparin) was used as reference.
The serial dilutions of the assay compound are prepared in a 0.046 M Tris buffer, pH 8.4, containing 0.15 M NaCl, 0.007 M EDTA, 0.1% of Tween 80 and 0.12 IU/ml of human antithrombin III. The samples of 50 μl of the respective dilutions are incubated with 50 μl of bovine factor Xa (13.6 U/ml) at 37° C. for 80 seconds. Next, 50 μl of chromogenic substrate, 1.1 mM S-2765, are added. The absorbance at 405 nm is measured in a photometer. The activity of the deblocked factor Xa is indicated by the emission of p-nitroaniline from the substrate.

[3] = target: aggrecanase; experiment: Effect on the aggrecanase in synovial fluids or on preparations of recombinant ADAMTS protein (Agg1mut substrate, BC-3 ELISA); format: biochemical; settings: for Estimated IC50: aggrecanase, substrate conversion
Procedure: Effect of the carboxyl-reduced derivatives according to the invention on the aggrecanase in synovial fluids or on preparations of recombinant ADAMTS protein.
The analysis is carried out on 96-well plates. Before the analysis, serial dilutions of the assay compounds are prepared in an aqueous solution.
In each well, a fixed volume of synovial fluid or aggrecanase activity generating a known increase, between 1.0 and 1.4 absorbance units (405 nm), under the conditions of the analysis, is mixed with 3 μl of solution of compound from the respective dilution step. Dulbecco's modified Eagle's medium (DMEM) is added to each well to give a final volume of 300 μl. The plate is then incubated for 1 hour at 37° C. in a carbon dioxide atmosphere.
Preparation of the analytical plate:
In a first step, the microplate is coated with 100 μl per well of a commercial goat anti-mouse IgG antibody for 1 hour at ambient temperature (5 μg/ml in a phosphate buffered saline solution, pH 7.4 [PBS buffer]). After washing with the PBS buffer containing 0.1% of Tween-20 (washing buffer), the wells are blocked by means of a step consisting of a one hour incubation with 100 μl per well of 5% bovine serum albumin in a PBS buffer containing 0.05% of Tween-20.
After another rinse of the analytical plate with the washing buffer, the complete set of mixtures originating from the preceding digestion is transferred to this plate, well by well, and incubated at ambient temperature for one hour. The plate is again washed as above. Next, 100 μl of the second antibody (anti-human IgG antibody labeled with peroxidase, 1:1000 in PBS containing 0.5% of BSA and 0.05% of Tween-20) are added to each well, with subsequent incubation at ambient temperature again for one hour. […] The measurement is carried out by means of the screen mode using detection at 405 nm relative to a reference filter (620 nm) with automatic readings at 5-second intervals. The development is stopped as soon as the maximum signal (405 nm) in the absorbance range of 1.0 to 1.4 is reached.

[4] = target: T2, bovine factor Xa; settings: reference low-molecular weight heparin used for calibration; cited from earlier work
[5] = conc. of glycosaminoglycan 0.0001 μg/ml
[6] = conc. of glycosaminoglycan 0.001 μg/ml
[7] = conc. of glycosaminoglycan 0.01 μg/ml
[8] = conc. of glycosaminoglycan 0.1 μg/ml

IC50 [1] [µg/mL] | Anti-factor Xa activity [2] [U/mg] | Estimated IC50 [3] [µg/mL] | % Conversion [3, 5] [%] | % Conversion [3, 6] [%] | % Conversion [3, 7] [%] | % Conversion [3, 8] [%] | % Conversion ([3]; conc. of glycosaminoglycan 1.0 μg/ml) [%] | Substance | Anti-factor Xa activity of the reference standard [4] [U/mg]
0.11 | 1.1 | 0.007 | 100.0 | 93.4 | 27.4 | 18.0 |  | Persulfated, Carboxyl-reduced Dermatan Sulfate Sodium Salt [Example 4] | 
 |  |  |  |  |  |  |  | Enoxaparin | 100
10.0 | 0 | 0.26 | 100.0 | 96.4 | 84.3 | 70.2 | 36.1 | 6-O-sulfated, Carboxyl-reduced Dermatan Sulfate Sodium Salt [Example 5] | 

Substance | IC50 [1] [µg/mL] | Anti-factor Xa activity [2] [U/mg] | Estimated IC50 [3] [µg/mL] | % Conversion [3, 5] [%] | % Conversion [3, 6] [%] | % Conversion [3, 7] [%] | % Conversion [3, 8] [%] | % Conversion ([3]; conc. of glycosaminoglycan 1.0 μg/ml) [%] | Anti-factor Xa activity of the reference standard [4] [U/mg]
Carboxyl-reduced Dermatan Sulfate Sodium Salt [Example 1] |  |  | ~7.9 |  |  |  |  |  | 
